{"source": "patent US20080009418A1", "about": "“Selective Inhibitors” (Alchemia LTD., priority 2004, published 2008)", "key": {"[1]": {"target": "T1, Human neurokinin (NK1) (Homo sapiens, UniProt P25103)", "T1 construct": "purchased Perkin Elmer Biosignal", "T1 sequence (P25103 whole entry)": "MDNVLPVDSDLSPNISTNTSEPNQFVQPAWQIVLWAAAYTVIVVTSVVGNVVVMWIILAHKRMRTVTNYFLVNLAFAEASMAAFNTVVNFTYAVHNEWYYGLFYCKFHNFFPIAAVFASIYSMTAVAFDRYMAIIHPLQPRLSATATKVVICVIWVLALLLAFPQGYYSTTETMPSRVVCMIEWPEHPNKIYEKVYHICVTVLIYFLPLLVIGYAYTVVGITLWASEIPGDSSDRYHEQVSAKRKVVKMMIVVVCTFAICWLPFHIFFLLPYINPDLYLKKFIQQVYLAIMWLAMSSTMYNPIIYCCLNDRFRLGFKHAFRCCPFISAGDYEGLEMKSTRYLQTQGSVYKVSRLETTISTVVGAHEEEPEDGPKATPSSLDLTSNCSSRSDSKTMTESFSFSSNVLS", "test": "Radioligand binding, human neurokinin NK1 membranes, filtration, [125I]-Substance P", "settings": "compound at 10 μM; [125I]-Substance P", "method_in_brief": "(§1)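 Membranes from cloned human receptors were incubated with compound and radioligand for 1 hour at room temperature. Bound ligand was collected on 0.3% PEI-soaked filters, washed with cold 50 mM Tris-HCl pH 7.4, and counted by scintillation. Percent inhibition was computed against DMSO totals and reference-ligand nonspecific wells.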"}, "[2]": {"target": "T2, Human melanocortin (MC5) (Homo sapiens, UniProt P33032)", "T2 construct": "purchased Perkin Elmer Biosignal", "T2 sequence (P33032 whole entry)": "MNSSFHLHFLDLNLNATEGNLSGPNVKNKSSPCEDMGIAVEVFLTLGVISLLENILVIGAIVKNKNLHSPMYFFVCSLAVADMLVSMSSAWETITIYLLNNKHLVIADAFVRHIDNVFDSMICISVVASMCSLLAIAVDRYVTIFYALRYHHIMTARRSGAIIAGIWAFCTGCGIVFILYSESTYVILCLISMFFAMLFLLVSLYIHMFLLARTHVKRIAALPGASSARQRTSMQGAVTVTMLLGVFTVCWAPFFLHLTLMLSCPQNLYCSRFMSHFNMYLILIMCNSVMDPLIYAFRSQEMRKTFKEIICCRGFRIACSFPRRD", "test": "Radioligand binding, human melanocortin MC5 membranes, FlashPlate, [125I]-NDP-αMSH", "settings": "compound at 10 μM, [125I]-NDP-αMSH", "method_in_brief": "(§2)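 Cloned human receptor membranes were coated onto FlashPlate wells and incubated with radioligand and compound (added from a 0.5 mM DMSO daughter plate) for 1 hour at room temperature in the dark. Scintillation counting gave percent inhibition, with DMSO defining total and reference ligand defining non-specific binding.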"}, "[3]": {"target": "T3, Human κ-Opioid (KOP) (Homo sapiens, UniProt P41145)", "T3 construct": "purchased Perkin Elmer Biosignal", "T3 sequence (P41145 whole entry)": "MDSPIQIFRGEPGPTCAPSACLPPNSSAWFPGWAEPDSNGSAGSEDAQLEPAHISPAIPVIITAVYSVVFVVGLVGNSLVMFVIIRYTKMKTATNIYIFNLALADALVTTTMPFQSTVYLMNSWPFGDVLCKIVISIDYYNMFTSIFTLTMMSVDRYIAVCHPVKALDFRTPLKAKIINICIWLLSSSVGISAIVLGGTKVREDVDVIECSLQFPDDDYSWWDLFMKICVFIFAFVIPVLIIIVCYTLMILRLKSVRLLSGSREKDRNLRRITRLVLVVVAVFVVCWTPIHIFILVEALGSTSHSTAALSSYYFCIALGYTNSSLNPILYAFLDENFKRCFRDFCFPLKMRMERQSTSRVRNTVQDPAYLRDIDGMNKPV", "test": "Radioligand binding, human κ-opioid (KOP) membranes, filtration, [3H]-Diprenorphine", "settings": "compound at 10 μM, [3H]-Diprenorphine", "method_in_brief": "as §1"}, "[4]": {"target": "T4, Human δ-opioid (DOP) (Homo sapiens, UniProt P41143)", "T4 construct": "purchased Perkin Elmer Biosignal", "T4 sequence (P41143 whole entry)": "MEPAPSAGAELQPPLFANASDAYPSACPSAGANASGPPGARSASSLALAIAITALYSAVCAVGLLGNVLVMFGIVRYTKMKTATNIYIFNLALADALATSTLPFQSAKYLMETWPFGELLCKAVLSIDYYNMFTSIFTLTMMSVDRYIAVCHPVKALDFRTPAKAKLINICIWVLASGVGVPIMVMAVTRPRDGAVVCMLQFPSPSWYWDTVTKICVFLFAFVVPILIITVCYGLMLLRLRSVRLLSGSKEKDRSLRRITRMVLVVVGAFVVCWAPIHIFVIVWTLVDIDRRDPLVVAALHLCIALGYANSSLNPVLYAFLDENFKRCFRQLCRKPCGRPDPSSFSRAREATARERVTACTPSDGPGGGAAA", "test": "Radioligand binding, human δ-opioid (DOP) membranes, FlashPlate, [3H]-Bremazocine", "settings": "compound at 10 μM; [3H]-Bremazocine", "method_in_brief": "as §2"}, "[5]": {"target": "T5, Mouse urotensin (mUR2) (Mus musculus, UniProt Q8VIH9)", "T5 construct": "purchased Perkin Elmer Biosignal", "T5 sequence (Q8VIH9 1-385)": "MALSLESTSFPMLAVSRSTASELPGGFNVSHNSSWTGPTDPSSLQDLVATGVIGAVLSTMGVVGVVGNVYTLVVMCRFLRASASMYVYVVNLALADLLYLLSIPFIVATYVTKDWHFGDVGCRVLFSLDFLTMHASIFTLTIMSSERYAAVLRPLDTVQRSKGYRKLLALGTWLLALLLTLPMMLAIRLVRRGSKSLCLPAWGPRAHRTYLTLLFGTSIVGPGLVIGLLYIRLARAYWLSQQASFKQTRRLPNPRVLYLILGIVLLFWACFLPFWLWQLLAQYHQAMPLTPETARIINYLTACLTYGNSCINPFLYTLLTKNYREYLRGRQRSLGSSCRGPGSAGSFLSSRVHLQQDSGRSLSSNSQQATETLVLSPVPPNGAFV", "test": "Radioligand binding, mouse urotensin mUR2 membranes, FlashPlate, [125I]-Urotensin II", "settings": "compound at 10 μM; [125I]-Urotensin II", "method_in_brief": "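Cloned mouse urotensin (mUR2) receptor membranes from Perkin Elmer Biosignal were immobilized in FlashPlate microplates using a proprietary coating. Each well got 19.5 μl buffer, then 0.5 μl of DMSO, reference ligand, or compound. Adding 5 μl of [125I]-Urotensin II, diluted to 5× final concentration in binding buffer, started binding. Plates were sealed with TopSeal-A and incubated 1 hour at room temperature in the dark. Wells were counted for 30 seconds each on a TopCount after a 60-second delay, and percentage inhibition was calculated.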"}, "[6]": {"target": "T6, Human opioid (ORL1) (Homo sapiens, UniProt P41146)", "T6 construct": "purchased Perkin Elmer Biosignal", "T6 sequence (P41146 whole entry)": "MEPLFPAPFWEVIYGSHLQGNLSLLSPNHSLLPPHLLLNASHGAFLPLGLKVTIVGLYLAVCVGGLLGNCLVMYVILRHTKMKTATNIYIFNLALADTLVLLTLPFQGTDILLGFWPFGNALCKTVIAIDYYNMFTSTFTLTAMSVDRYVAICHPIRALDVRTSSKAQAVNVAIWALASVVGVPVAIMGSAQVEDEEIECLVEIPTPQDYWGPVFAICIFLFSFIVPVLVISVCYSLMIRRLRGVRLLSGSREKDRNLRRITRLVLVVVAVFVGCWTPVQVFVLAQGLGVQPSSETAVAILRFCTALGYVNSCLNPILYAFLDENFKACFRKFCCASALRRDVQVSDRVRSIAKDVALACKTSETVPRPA", "test": "Radioligand binding, human opioid ORL1 membranes, FlashPlate, [125I]-Nociceptin", "settings": "compound at 10 μM; [125I]-Nociceptin", "method_in_brief": "as §2"}, "[7]": {"target": "T7, Human Melanocortin (MC4) (Homo sapiens, UniProt P32245)", "T7 construct": "purchased Perkin Elmer Biosignal", "T7 sequence (P32245 whole entry)": "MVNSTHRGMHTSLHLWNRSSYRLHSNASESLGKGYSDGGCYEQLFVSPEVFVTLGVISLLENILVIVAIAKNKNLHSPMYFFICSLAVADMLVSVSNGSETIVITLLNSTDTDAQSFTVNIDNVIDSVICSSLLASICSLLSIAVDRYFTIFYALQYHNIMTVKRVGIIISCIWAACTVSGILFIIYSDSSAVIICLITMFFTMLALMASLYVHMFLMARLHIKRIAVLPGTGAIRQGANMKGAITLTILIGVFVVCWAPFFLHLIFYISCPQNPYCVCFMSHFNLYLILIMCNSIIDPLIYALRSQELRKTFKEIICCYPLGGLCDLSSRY", "test": "Radioligand binding, human melanocortin MC4 membranes, FlashPlate, [125I]-NDP-αMSH", "settings": "compound at 10 μM, [125I]-NDP-αMSH", "method_in_brief": "as §2"}, "[8]": {"target": "T8, Human melanin-concentrating hormone (MCH1) (Homo sapiens, UniProt Q99705)", "T8 construct": "purchased Perkin Elmer Biosignal", "T8 sequence (Q99705 whole entry)": "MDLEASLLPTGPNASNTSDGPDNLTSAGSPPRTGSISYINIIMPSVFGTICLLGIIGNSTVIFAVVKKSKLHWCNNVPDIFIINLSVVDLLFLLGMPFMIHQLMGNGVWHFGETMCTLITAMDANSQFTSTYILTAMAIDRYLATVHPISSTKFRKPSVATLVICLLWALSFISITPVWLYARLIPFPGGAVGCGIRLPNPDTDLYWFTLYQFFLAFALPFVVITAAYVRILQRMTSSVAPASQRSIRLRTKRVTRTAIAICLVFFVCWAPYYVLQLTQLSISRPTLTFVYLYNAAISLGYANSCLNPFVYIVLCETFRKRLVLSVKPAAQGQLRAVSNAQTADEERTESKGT", "test": "Radioligand binding, human melanin-concentrating hormone MCH1 membranes, FlashPlate, [125I]-S36057", "settings": "compound at 10 μM, [125I]-S36057", "method_in_brief": "as §2"}, "[9]": {"target": "T9, Human μ-opioid (MOP) (Homo sapiens, UniProt P35372)", "T9 construct": "purchased Perkin Elmer Biosignal", "T9 sequence (P35372 whole entry)": "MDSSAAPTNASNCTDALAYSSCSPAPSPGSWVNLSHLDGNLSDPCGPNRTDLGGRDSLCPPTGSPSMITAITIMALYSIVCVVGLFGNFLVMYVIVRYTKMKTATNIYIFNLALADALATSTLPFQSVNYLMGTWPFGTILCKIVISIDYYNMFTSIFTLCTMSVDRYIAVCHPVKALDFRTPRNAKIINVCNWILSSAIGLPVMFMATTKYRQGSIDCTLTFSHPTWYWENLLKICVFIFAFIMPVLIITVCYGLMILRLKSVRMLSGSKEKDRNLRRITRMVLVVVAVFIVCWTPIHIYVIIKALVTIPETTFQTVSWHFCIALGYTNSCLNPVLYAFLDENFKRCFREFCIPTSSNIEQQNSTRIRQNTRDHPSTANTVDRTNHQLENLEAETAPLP", "test": "Radioligand binding, human μ-opioid (MOP) membranes, FlashPlate, [3H]-Naloxone", "settings": "compound at 10 μM; [3H]-Naloxone", "method_in_brief": "as §2"}, "[10]": {"target": "T10, Human neuropeptide Y (NPY-Y1) (Homo sapiens, UniProt P25929)", "T10 construct": "purchased Perkin Elmer Biosignal", "T10 sequence (P25929 1-384)": "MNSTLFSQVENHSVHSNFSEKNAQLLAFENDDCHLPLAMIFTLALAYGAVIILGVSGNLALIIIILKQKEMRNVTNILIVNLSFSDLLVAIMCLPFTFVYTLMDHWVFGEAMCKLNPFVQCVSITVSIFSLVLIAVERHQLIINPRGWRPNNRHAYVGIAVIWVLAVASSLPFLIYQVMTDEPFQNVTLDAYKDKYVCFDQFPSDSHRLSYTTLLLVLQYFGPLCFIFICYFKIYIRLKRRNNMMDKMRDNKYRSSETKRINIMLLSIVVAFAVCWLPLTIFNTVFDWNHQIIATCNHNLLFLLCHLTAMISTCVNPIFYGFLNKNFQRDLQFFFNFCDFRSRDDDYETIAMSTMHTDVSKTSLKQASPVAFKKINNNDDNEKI", "test": "Radioligand binding, human neuropeptide Y NPY-Y1 membranes, FlashPlate, [125I]-PYY", "settings": "compound at 10 μM; [125I]-PYY", "method_in_brief": "as §2"}, "[11]": {"target": "T11, Human Melanocortin (MC3) (Homo sapiens, UniProt P41968)", "T11 construct": "purchased Perkin Elmer Biosignal", "T11 sequence (P41968 whole entry)": "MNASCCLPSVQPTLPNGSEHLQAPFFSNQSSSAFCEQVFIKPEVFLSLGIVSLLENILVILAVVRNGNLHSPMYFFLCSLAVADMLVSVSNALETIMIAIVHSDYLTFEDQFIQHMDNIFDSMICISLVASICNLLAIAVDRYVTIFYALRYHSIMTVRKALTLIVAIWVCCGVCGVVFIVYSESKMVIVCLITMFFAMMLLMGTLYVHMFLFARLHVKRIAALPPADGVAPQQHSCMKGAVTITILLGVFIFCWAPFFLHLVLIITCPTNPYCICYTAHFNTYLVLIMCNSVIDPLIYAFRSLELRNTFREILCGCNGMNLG", "test": "Radioligand binding, human melanocortin MC3 membranes, FlashPlate, [125I]-NDP-αMSH", "settings": "compound at 10 μM, [125I]-NDP-αMSH", "method_in_brief": "as §2"}}, "data": [{"smiles": "COC[C@H]1OC(OCc2ccc(Cl)cc2)[C@H](NC(=O)CCNC(=N)N)[C@@H](OCc2cccc(O)c2)[C@@H]1O", "note": "(stereo partly shown) [compound 138]", "values": [{"measurement": "A8 radioligand binding, percentage inhibition", "setting": "[1]", "result": "− (“−” indicates less than 50% inhibition at 10 μM)"}, {"measurement": "A5 radioligand binding, percentage inhibition", "setting": "[2]", "result": "− (“−” indicates less than 50% inhibition at 10 μM)"}, {"measurement": "A2 radioligand binding, percentage inhibition", "setting": "[3]", "result": "− (“−” indicates less than 50% inhibition at 10 μM)"}, {"measurement": "A1 radioligand binding, percentage inhibition", "setting": "[4]", "result": "+ (“+” indicates greater than 50% inhibition at 10 μM)"}, {"measurement": "A11 radioligand binding, percentage inhibition", "setting": "[5]", "result": "− (“−” indicates less than 50% inhibition at 10 μM)"}, {"measurement": "A10 radioligand binding, percentage inhibition", "setting": "[6]", "result": "− (“−” indicates less than 50% inhibition at 10 μM)"}, {"measurement": "A4 radioligand binding, percentage inhibition", "setting": "[7]", "result": "− (“−” indicates less than 50% inhibition at 10 μM)"}, {"measurement": "A6 radioligand binding, percentage inhibition", "setting": "[8]", "result": "− (“−” indicates less than 50% inhibition at 10 μM)"}, {"measurement": "A7 radioligand binding, percentage inhibition", "setting": "[9]", "result": "+ (“+” indicates greater than 50% inhibition at 10 μM)"}, {"measurement": "A9 radioligand binding, percentage inhibition", "setting": "[10]", "result": "− (“−” indicates less than 50% inhibition at 10 μM)"}, {"measurement": "A3 radioligand binding, percentage inhibition", "setting": "[11]", "result": "− (“−” indicates less than 50% inhibition at 10 μM)"}]}, {"smiles": "N=C(N)NCCC(=O)N[C@H]1C(OCc2ccc(Cl)cc2)O[C@H](COCc2ccc3ccccc3c2)[C@@H](O)[C@@H]1OCc1ccc2ccccc2c1", "note": "(stereo partly shown) [compound 528]", "values": [{"measurement": "A8: inhibition of radioligand binding, human neurokinin (NK1)", "setting": "[1]", "result": "+ (“+” indicates greater than 50% inhibition at 10 μM)"}, {"measurement": "A5: inhibition of radioligand binding, human melanocortin (MC5)", "setting": "[2]; 10 µM", "result": "− (“−” indicates less than 50% inhibition at 10 μM)"}, {"measurement": "A2: inhibition of radioligand binding, human κ-opioid (KOP)", "setting": "[3]; 10 µM", "result": "− (“−” indicates less than 50% inhibition at 10 μM)"}, {"measurement": "A1: inhibition of radioligand binding, human δ-opioid (DOP)", "setting": "[4]", "result": "− (“−” indicates less than 50% inhibition at 10 μM)"}, {"measurement": "A11: inhibition of radioligand binding, mouse urotensin (mUR2)", "setting": "[5]", "result": "− (“−” indicates less than 50% inhibition at 10 μM)"}, {"measurement": "A10: inhibition of radioligand binding, human opioid (ORL1)", "setting": "[6]", "result": "− (“−” indicates less than 50% inhibition at 10 μM)"}, {"measurement": "A4: inhibition of radioligand binding, human melanocortin (MC4)", "setting": "[7]; 10 µM", "result": "− (“−” indicates less than 50% inhibition at 10 μM)"}, {"measurement": "A6: inhibition of radioligand binding, human melanin-concentrating hormone (MCH1)", "setting": "[8]; 10 µM", "result": "− (“−” indicates less than 50% inhibition at 10 μM)"}, {"measurement": "A7: inhibition of radioligand binding, human μ-opioid (MOP)", "setting": "[9]", "result": "− (“−” indicates less than 50% inhibition at 10 μM)"}, {"measurement": "A9: inhibition of radioligand binding, human neuropeptide Y (NPY-Y1)", "setting": "[10]", "result": "− (“−” indicates less than 50% inhibition at 10 μM)"}, {"measurement": "A3: inhibition of radioligand binding, human melanocortin (MC3)", "setting": "[11]; 10 µM", "result": "− (“−” indicates less than 50% inhibition at 10 μM)"}]}]}
